# Patent US10112978B2, “Peptide and use thereof” (OSAKA UNIVERSITY, priority 2014, dated 2018)
# “Also recorded” adds a separate entry of the source.
# Columns and labels:
# LPS-primed THP-1 cells = experiment: Cytokine production in LPS-primed THP-1 cells (ELISA of culture supernatant); format: cell-based, human
# Description: (§1) Human monocyte cell line THP-1 (JCRB registration number: JCRB0112) was suspended at 1×10^6 cells/mL in RPMI1640 medium containing 1 μg/mL lipopolysaccharide (LPS) and 10% FBS, and incubated in a CO2 incubator for 3 hours for cell priming. The cell suspension was centrifugated, the cells were resuspended at 1×10^6 cells/mL in RPMI1640 medium containing 10% FBS, and the cell suspension was added to a 24-well plate at 500 μL/well. An OSK-1 solution was prepared at a 2-fold higher concentration than the final concentration in RPMI1640 medium containing 10% FBS and added to the plate at 500 μL/well. After about 16 hours, the culture supernatant was harvested, and the cytokine concentrations in the supernatant were measured by ELISA.
# THP-1 cells were suspended at 1×10^6 cells/mL in RPMI1640 medium containing 1 μg/mL LPS and 10% FBS, and incubated in a CO2 incubator for 3 hours for cell priming. The cell suspension was centrifugated, the cells were resuspended at 1×10^6 cells/mL in RPMI1640 medium containing 10% FBS, and the cell suspension was added to a 24-well plate at 500 μL/well. […] After about 16 hours, the culture supernatant was harvested, and the cytokine concentrations in the supernatant were measured by ELISA.
# [1] = system: PMA-differentiated THP-1 cells; experiment: Cytokine and chemokine production in PMA-differentiated THP-1 cells (ELISA); format: cell-based, human
# Description: THP-1 cells were suspended at 5×10^5 cells/mL in RPMI1640 medium containing 50 ng/mL PMA (phorbol 12-myristate 13-acetate) and 10% FBS, and seeded at 5×10^5 cells/well on a 24-well plate. The cells were cultured in a CO2 incubator for 2 days for differentiation into macrophages. After the 2-day culture, the medium was removed, an OSK-1 solution in RPMI1640 medium containing 10% FBS was added to the wells, and overnight culture was performed. Sixteen hours after the addition, the culture supernatant was harvested, and the cytokine concentrations in the supernatant were measured by ELISA.
# The experiment in this example was performed in the same manner as in Example 3, and the IL-1β, IL-18, TNFα, IL-6, RANTES, MIP-1α and MIP-1β concentrations in the culture supernatant were measured.
# inflammasomes = experiment: Inflammasome activation: IL-1β and TNFα production in NLRP3-knockdown and control siRNA THP-1 cells; format: cell-based, human; settings: OSK-1 10 μg/mL, 16 hours
# Description: THP-1 cells were transfected with a siRNA against the inflammasome component NLRP3 (NOD-like receptor family, pyrin domain containing 3) (final concentration: 100 nM, Hs_CIAS 1_6 and Hs_CIAS 1_9, manufactured by QIAGEN) or a control siRNA using a transfection reagent (6 μL/well, HiPerFect Transfection Reagent, manufactured by QIAGEN). After overnight culture, the expression level of NLRP3 was determined by western blotting.
# as §1, with “Each type of the” for “Human monocyte cell line”, “cells” for “(JCRB registration number: JCRB0112)”, “LPS” for “lipopolysaccharide (LPS)”, “After” for “After about”, “IL-1β and TNFα” for “cytokine”
# C57/BL6 mice = experiment: Adjuvant effect in mice (anti-Ang II antibody titer after Ang II-KLH vaccine); format: in vivo; settings: Ang II-KLH 2 μg/animal + OSK-1 100 μg/animal intracutaneously 3 times at 2-week intervals
# Description: For the Freund's adjuvant group, complete Freund's adjuvant was used at the first administration, and incomplete Freund's adjuvant was used at the second and third administration. Blood was drawn before the first administration and 2, 4, 6 and 8 weeks after the first administration, and the anti-Ang II antibody titer was measured.
# The antibody titer was measured in the same manner as in Example 7.
# [2] = system: mouse bone marrow-derived dendritic cells; experiment: Cytokine production in mouse bone marrow-derived dendritic cells (ELISA); format: cell-based; settings: about 16 hours
# Description: Bone marrow cells were harvested from the thigh bone of a C57BL/6 mouse, seeded in RPMI1640 medium containing […] GM-CSF (granulocyte macrophage colony-stimulating factor) and 10% FBS, and cultured for 3 days. After the 3-day culture, a fresh medium was added and culture was continued for additional 4 days. The cells not adherent on the culture plate were harvested and regarded as bone marrow-derived dendritic cells. The cells were suspended at 2×10^6 cells/mL in RPMI1640 medium containing 10% FBS, and the cell suspension was added to a 24-well plate at 500 μL/well. An OSK-1 solution was prepared at a 2-fold higher concentration than the final concentration in RPMI1640 medium containing 10% FBS and added to the plate at 500 μL/well. After about 16 hours, the culture supernatant was harvested, and the cytokine concentrations in the supernatant were measured by ELISA.
# C3H/HeN mice = experiment: Hair-growth effect in shaved mice; format: in vivo
# Description: The dorsal skin of 8-week-old male C3H/HeN mice in the resting phase of the hair cycle was shaved using a hair clipper and a shaver with caution to avoid damage to the skin. The shaved area was 2×4 cm. To the shaved area, 100 μL of a 0.02% (w/v), 0.1% (w/v) or 0.5% (w/v) OSK-1 solution was applied once daily for 14 days starting from 3 days after the shaving. For the control group, physiological saline was applied, and for the positive control group, 3% (w/v) minoxidil was applied. The day of shaving was designated as Day 0. On Day 3, Day 7, Day 10, Day 14 and Day 17, the percentage of the area of hair regrowth relative to the entire shaved area in each mouse was scored according to the following criteria: 0% was defined as score 0, 20% or less was defined as score 1, 40% or less was defined as score 2, 60% or less was defined as score 3, 80% or less was defined as score 4, and 100% or less was defined as score 5. In addition, 10 strands of newly grown hair in the shaved area of each mouse were pulled out on Day 17, the length of each strand of newly grown hair was measured under a stereomicroscope, and the measured lengths were summed as the hair length (mm) of each animal.
# [3] = compared with alum or the CpG nucleotide
sequence,measurement,setting,value
ELKLIFLHRLKRLRKRLKRK (Ac-ELKLIFLHRLKRLRKRLKRK-NH2) [OSK-1],"production of the cytokines (IL-1β, IL-18, TNFα and IL-6 concentrations in the culture supernatant)","LPS-primed THP-1 cells; about 16 hours, ELISA",induce the production of the cytokines in the LPS-primed THP-1 cells in an OSK-1 concentration dependent manner
same,production of IL-1β,LPS-primed THP-1 cells; [3],more strongly induced
same,production of TNFα,LPS-primed THP-1 cells; [3],more strongly induced
same,"production of the chemokines and cytokines (IL-1β, IL-18, TNFα, IL-6, RANTES, MIP-1α and MIP-1β)","[1]; Example 11, ELISA",induced the production of the chemokines and cytokines in the PMA-differentiated THP-1 cells in an OSK-1 concentration dependent manner
same,"production of the cytokines (IL-1β, IL-18, TNFα and IL-6 concentrations in the culture supernatant)","[1]; OSK-1 at 30 μg/mL, 16 hours, ELISA",strongly induced the production of the cytokines
same,production of IL-1β,inflammasomes; LPS-primed NLRP3-knockdown THP-1 cells,the induction of IL-1β production by OSK-1 was inhibited
same,production of TNFα,inflammasomes; NLRP3-knockdown and control siRNA THP-1 cells,induced by OSK-1 regardless of whether NLRP3 expression was knocked down or not
same,anti-Ang II antibody titer,C57/BL6 mice,"increase in the anti-Ang II antibody titer was observed; also recorded: smaller than that in the Freund's adjuvant (FA) group, but comparable to that in the alum group"
same,"production of the cytokines (IL-1β, IFNγ, TNFα, IL-6 and IL-12p70)",[2],induced the production of the cytokines in the mouse bone marrow-derived dendritic cells in an OSK-1 concentration dependent manner
same,hair length,"C3H/HeN mice; 0.5% OSK-1 group, Day 17, compared with 3% minoxidil group",almost comparable to those in the 3% minoxidil group
same,hair regrowth score,"C3H/HeN mice; 0.5% OSK-1 group, compared with 3% minoxidil group",almost comparable to those in the 3% minoxidil group
same,hair growth,"C3H/HeN mice; 100 μL of 0.02%, 0.1% or 0.5% (w/v) solution on shaved dorsal skin once daily for 14 days",promote hair growth in a concentration dependent manner
